Results from US12329739B2, “Isoflavonoid compounds and methods for the treatment of cancer” (Aardvark Therapeutics, Inc., priority 2010, dated 2025).
pIC50: −log10 of the molar value. One block for each compound: values may come before it.

Legend:
PC3 = test: MTT proliferation assay, PC3; assay type: cell-based
Method: (§1) Proliferation Assays. IC50 values were determined for each cell line. Cells were seeded in 96-well plates at an appropriate cell density as determined from growth kinetics analysis and cultured for 5 days in the absence and presence of the test compounds. Cell proliferation was assessed after the addition of 20 μl of 3-4,5 dimethylthiazol-2,5-diphenyl tetrazolium bromide (MTT, 5 mg/ml in PBS, Sigma) for 5 hrs at 37° C. according to manufacturer's instructions. IC50 values were calculated from semi-log plots of % of control proliferation on the y-axis against log dose on the x-axis.
(§2) Anti-proliferative Activity of Isoflavonoid Derivatives. IC50 values were determined for each cell line after 120 h of exposure.

A2780 = test: MTT proliferation assay, A2780; assay type: cell-based
Method: as §1, §2

CP70 = test: MTT proliferation assay, CP70; assay type: cell-based
Method: as §1, §2

A2058 = test: MTT proliferation assay, A2058; assay type: cell-based; conditions: Homo sapiens, A2058, 120 h
Method: as §1, §2

MDA-MB-468 = test: MTT proliferation assay, MDA-MB-468; assay type: cell-based, human
Method: The human gastric cancer cell line AGS (CRL-1739) was cultured in Hams F-12K (Kaighans modification) medium containing 2 mM L-glutamine, 2.5 g/L sodium bicarbonate and 2 mM sodium pyruvate. The human breast adenocarcinoma line MDA-MB-468 (HTB-132) was cultured in DMEM:F12 (1:1) medium containing 2.5 mM L-glutamine, 2.4 g/L sodium bicarbonate, supplemented with an additional 2 mM L-glutamine.
as §1, §2

SKBR-3 = test: MTT proliferation assay, SKBR-3; assay type: cell-based, human
Method: The human colorectal adenocarcinoma line HCT-116 (CCL-247) and the human breast adenocarcinoma line SK-BR-3 (HTB-30) were cultured in McCoy's 5a Medium (Invitrogen) containing 1.5 mM L-glutamine and 2.2 g/L sodium bicarbonate. The human colorectal adenocarcinoma line SW620 (CCL-227) was cultured in Leibovitz's L-15 Medium (Invitrogen) containing 2.05 mM L-glutamine.
as §1, §2

MM2200 = test: MTT proliferation assay, MM2200; assay type: cell-based; conditions: Table 2, Melanoma, MM2200, 120 hrs of exposure
Method: as §1, §2
Activity data is provided is Table 2.

[1] = tested on: A2780 ovarian cancer cells; test: Combination with carboplatin, proliferation of A2780 cells; assay type: cell-based; conditions: for enhancement of the anti-cancer effect of carboplatin: A2780, depending on exposure regimen (24 hr concurrent or sequential)
Method: In vitro toxicity in normal and cancer cells. Cells were seeded in 96-well plates at an appropriate cell density as determined from growth kinetics analysis. Depending on the plating efficiency and lag phase of individual cell lines, cells were allowed to plate down prior to drug exposure. Intra-experimental single agent controls were included to ensure IC50 values obtained for each cell line matched previous IC50 determinations. Four analogue concentrations were employed in each analysis. Analogue concentrations used in each assay were chosen based on IC50 values, which formed the top concentration of analogue used. Subsequent concentrations were chosen based on simple ½ or 1/10 dilutions of the top analogue concentration employed (i.e. 2, 1, 0.5, 0.25 μM). Nine 1/10 serial dilutions of chemotherapeutic were employed with the top chemotherapeutic concentration being 50 μM.
For combined analysis, analogue concentrations were held constant through 1/10 serial dilutions of chemotherapeutic in growth medium (top chemotherapeutic concentration employed was 50 μM). Combined cultures were cultured for 5 days.
The sequence of administration effect of each agent on chemotherapeutic IC50 values was assessed by exposing plated cells to a single agent in sequence for 24 hr. To assess the isoflavonoid derivative→chemotherapeutic sequence, plated cells were first exposed to the appropriate analogue concentrations and incubated at 37° C. for 24 hr. Cells were washed with growth medium and then exposed to the appropriate chemotherapeutic concentrations and incubated for 24 hr. Cells were then washed and incubated for a further 3 days. To assess the chemotherapeutic→isoflavonoid derivative sequence, the procedure was reversed.
Cell proliferation was assessed after the addition of 20 μl of 3-4,5 dimethylthiazol-2,5-diphenyl tetrazolium bromide (MTT, 2.5 mg/ml in PBS, Sigma) for 3-4 hrs at 37° C. according to manufacturer's instructions. IC50 values were calculated from semi-log plots of % of control proliferation on the y-axis against log dose on the x-axis.
3-D model analysis of the cytotoxic interaction between drug A and drug B enables the representation of predicted inhibitory effect of two drugs in combination in 3 dimensions to reveal actual regions of synergy or antagonism. The 3D synergy plots are based on a theory of “Theoretical Additivity” (TA or […]) as outlined by Kanzawa et al. Theoretical Additivity was calculated from the cytotoxicities of drug A and drug B as monotherapies using the following formula which assumes the drugs are mutually exclusive inhibitors: […]
The TA is calculated for each combination of drug concentrations and subtracted from the observed experimental effect for each combination to give a measurement of synergistic or enhanced action.
Combination index (CI) analysis, which employs the median-effect principle correlating drug dose to cytotoxicity, was also employed to assess synergy. The median-effect equation is utilized to calculate the dose of a drug that inhibits “x” percent of cells (Chou and Talalay, 1984). D=Dm[fa/(1−fa)]^1/m
In vitro Assessment of Combination of Optically Active Compound 31 and Carboplatin. Combination studies employed both 24 hr concurrent exposure, and 24 hr sequential exposure (racemic compound 32→Carboplatin) regimens. In both studies, four analogue concentrations (0.25, 0.5, 1 and 5 μM) were held constant against titrated carboplatin. When 1 and 5 μM of compound 32 was assessed in combination with the lowest concentration of carboplatin employed in this study (0.4 μM), no IC50 for carboplatin was achieved due the high levels of cell kill observed (30-40% of control).

DU145 = test: MTT proliferation assay, DU145; assay type: cell-based; conditions: Homo sapiens, DU-145; Prostate, DU145, 120 h of exposure
Method: as §1, §2

LNCaP = test: MTT proliferation assay, LNCaP; assay type: cell-based; conditions: Homo sapiens, Prostate, 120 h of exposure
Method: as §1, §2

COLO205 = test: MTT proliferation assay, COLO205; assay type: cell-based, human; conditions: Homo sapiens, COLO 205; CRC, COLO205, 120 h of exposure
Method: (§3) The human non-small cell lung adenocarcinoma lines NCI-H1299 (CRL-5803), NCI-H460 (HTB-177), NCI-H358 (CRL-5807), NCI-H838 (CRL-5844), the human colorectal adenocarcinoma lines COLO 205 (CCL-222), HCT-15 (CCL-225) and the human gastric cancer cell line NCI-N87 (CRL-5822) were cultured in RPMI 1640 medium containing 2 g/L sodium bicarbonate (Hyclone/Invitrogen) supplemented with 2 mM L-glutamine (Gibco) 1 mM sodium pyruvate (Sigma), 10 mM HEPES (Sigma) and 4500 mg/L glucose (Sigma). The human non-small cell lung adenocarcinoma line NCI-H2126 (CCL-256) was cultured in DMEM:F12(1:1) (Hyclone/Invitrogen) containing 2.5 mM L-glutamine 2.4 g/L sodium bicarbonate supplemented with 5% fetal bovine serum (FBS), an additional 2 mM L-glutamine, 15 mM HEPES, 0.005 mg/ml insulin (Sigma), 0.01 mg/ml transferrin (Sigma), 30 nM sodium selenite (Sigma), 10 nM hydrocortisone (Sigma) and 10 nM beta-estradiol (Sigma). The human colorectal adenocarcinoma line HT-29 (HTB-38) and the human gastric cancer cell lines OE-19 (#96071721) and MKN1 (JCRB0252) were cultured in RPMI 1640 media supplemented with 2 mM L-glutamine.
as §1, §2

R-182 = test: MTT proliferation assay, R-182; assay type: cell-based; conditions: Ovarian, R-182, 120 h of exposure
Source text: Tissue culture. The multidrug resistant primary epithelial ovarian cancer cell line R-182 TARA was a gift from Dr. Gil Mor (Yale University, New Haven, CT, USA). This cell line was derived by explant from ovarian tumors and cultured as previously described. All other cell lines were purchased from American Type Culture Collection (ATCC, Manassas, VA, USA) with the exception of MKN1, HuH-7, JHH-1, which were purchased from the Japanese Collection of Research Bioresources (JCRB, Osaka, Japan), and OE19 which was purchased from the European Collection of Cell Cultures (ECACC, Salisbury, UK).
as §1, §2

NCI-H460 = test: MTT proliferation assay, NCI-H460; assay type: cell-based, human; conditions: Homo sapiens; NSCLC, NCI-H460, 120 h of exposure
Method: as §3, §1, §2

A549 = test: MTT proliferation assay, A549; assay type: cell-based; conditions: Homo sapiens; NSCLC, A549, 120 h of exposure
Method: as §1, §2

CALU3 = test: MTT proliferation assay, CALU3; assay type: cell-based; conditions: Homo sapiens, Calu-3; NSCLC, CALU3, 120 h of exposure
Method: as §1, §2

HepG2 = test: MTT proliferation assay, HepG2; assay type: cell-based, human; conditions: Homo sapiens; Liver, HepG2, 120 h of exposure
Method: (§4) The human hepatocellular carcinoma lines HepG2 (HB-8065), SK-HEP-1 (HTB-52) and the normal human lung fibroblast line IMR-90 (CCL-186) were cultured in Minimum Essential Eagles Medium containing 2 mM L-glutamine, 2.2 g/L sodium bicarbonate, supplemented with 1 mM sodium pyruvate and 0.1 mM non-essential amino acids. The human hepatocellular carcinoma line JHH-1 (JCRB1062) was cultured in Williams E Medium (Invitrogen) containing 2.2 g/L sodium bicarbonate, supplemented with 2 mM L-glutamine. The hepatocellular carcinoma line HuH-7 (JCRB0403) was cultured in DMEM, supplemented with 2 mM L-glutamine.
as §1, §2

SK-Hep-1 = test: MTT proliferation assay, SK-Hep-1; assay type: cell-based, human; conditions: Homo sapiens, SK-HEP1; Liver, SK-Hep-1, 120 h of exposure
Method: as §4, §1, §2

HuH-7 = test: MTT proliferation assay, HuH-7; assay type: cell-based, human; conditions: Homo sapiens; Liver, HuH-7, 120 h of exposure
Method: as §4, §1, §2

4405 = test: MTT proliferation assay, 4405; assay type: cell-based; conditions: Melanoma, 4405, 120 h of exposure
Method: as §1, §2

MM200 = test: MTT proliferation assay, MM200; assay type: cell-based; conditions: Melanoma, MM200, 120 h of exposure
Method: as §1, §2

pIC50 (PC3; Table 2, Prostate, PC3, 120 hrs of exposure): 5.82 to 6.29
pIC50 (A2780; Table 2, Ovarian, A2780, 120 hrs of exposure): 5.82 to 6.29
pIC50 (MDA-MB-468; Table 2, Breast, MDA-MB-468, 120 hrs of exposure): 5.82 to 6.29
pIC50 (SKBR-3; Table 2, Breast, SKBR-3, 120 hrs of exposure): 5.82 to 6.29
Compound: Oc1ccc([C@H]2c3ccc(O)cc3OC[C@H]2c2ccc(O)cc2)cc1 (racemic) [Compound 32]
pIC50 (CP70; Table 2, Ovarian, CP70, 120 hrs of exposure): 5.82 to 6.29
pIC50 (A2058; Table 2, Melanoma, A2058, 120 hrs of exposure): 6.30 to 6.82
pIC50 (MM2200): 5.82 to 6.29
enhancement of the anti-cancer effect of carboplatin ([1]; 0.25 μM of compound): 1.5-2 fold
enhancement of the anti-cancer effect of carboplatin ([1]; 0.5 μM of compound): 7-11 fold
cell kill level observed (no IC50 for carboplatin achieved) ([1]; 1 and 5 μM of compound plus 0.4 μM carboplatin, A2780): 30-40 % of control
compound concentration giving maximal activity enhancement with carboplatin ([1]; 3D method of Kanzawa, 12.5 μM carboplatin, A2780): 0.5 µM

pIC50 (A2780; Homo sapiens, A2780, 120 h, Table 2, Ovarian, A2780, 120 hrs of exposure): ≤ 5.00
pIC50 (SKBR-3; Homo sapiens, SK-BR-3, 120 h, Table 2, Breast, SKBR-3, 120 hrs of exposure): ≤ 5.00
Compound: Oc1ccc([C@@H]2c3ccc(O)cc3OC[C@@H]2c2ccc(O)cc2)cc1 [Compound 33]
pIC50 (CP70; 120 h, Table 2, Ovarian, CP70, 120 hrs of exposure): ≤ 5.00
pIC50 (MM2200): ≤ 5.00
activity enhancement in combination with carboplatin ([1]; A2780 cell line, 31 compared with compound 32): did not impart any activity enhancement or antagonistic effect

pIC50 (PC3; Homo sapiens, PC-3, 120 h, Prostate, PC3, 120 h of exposure): ≥ 6.82
pIC50 (DU145): ≥ 6.82
pIC50 (LNCaP): ≥ 6.82
pIC50 (COLO205): 5.82 to 6.29
pIC50 (A2780; Homo sapiens, A2780, 120 h, Ovarian, A2780, 120 h of exposure): ≥ 6.82
pIC50 (NCI-H460): ≥ 6.82
pIC50 (A549): 6.30 to 6.82
pIC50 (CALU3): ≥ 6.82
pIC50 (HepG2): ≥ 6.82
pIC50 (SK-Hep-1): ≥ 6.82
pIC50 (HuH-7): ≥ 6.82
pIC50 (MDA-MB-468; Homo sapiens, MDA-MB-468, 120 h, Breast, MDA-MB-468, 120 h of exposure): ≥ 6.82
pIC50 (SKBR-3; Homo sapiens, SK-BR-3, 120 h, Breast, SKBR-3, 120 h of exposure): ≥ 6.82
Compound: Cc1c(O)ccc2c1OC[C@@H](c1ccc(O)cc1)[C@H]2c1ccc(O)cc1 [d-5, d-cis-3-(4-hydroxyphenyl)-4-(4-hydroxyphenyl)-8-methylchroman-7-ol]
pIC50 (R-182): ≥ 6.82
pIC50 (CP70; 120 h, Ovarian, CP70, 120 h of exposure): ≥ 6.82
pIC50 (A2058; Melanoma, A2058, 120 h of exposure): ≥ 6.82
pIC50 4405: ≥ 6.82
pIC50 (MM200): 6.30 to 6.82
